Our source for the Ki values is BindingDB's records for doi:10.1073/pnas.71.5.1725 (1974).

The target in this assay is T1, Muscarinic acetylcholine receptor M2 (Rattus norvegicus, UniProt P10980).
T1 sequence (P10980 whole entry): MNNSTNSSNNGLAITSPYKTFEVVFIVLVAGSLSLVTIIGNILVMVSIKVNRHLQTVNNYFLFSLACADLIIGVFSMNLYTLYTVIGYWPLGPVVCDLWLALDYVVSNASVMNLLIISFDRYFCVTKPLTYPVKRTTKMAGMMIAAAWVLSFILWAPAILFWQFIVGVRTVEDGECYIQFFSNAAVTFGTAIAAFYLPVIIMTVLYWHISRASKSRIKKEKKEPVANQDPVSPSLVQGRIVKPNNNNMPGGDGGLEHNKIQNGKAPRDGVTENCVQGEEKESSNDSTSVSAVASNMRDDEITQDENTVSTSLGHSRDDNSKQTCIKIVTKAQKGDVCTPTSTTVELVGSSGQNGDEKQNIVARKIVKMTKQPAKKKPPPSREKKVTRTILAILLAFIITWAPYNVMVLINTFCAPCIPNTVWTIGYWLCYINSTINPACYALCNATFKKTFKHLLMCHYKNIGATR
As for `CC(C)[N+](C)(CCC(C(N)=O)(c1ccccc1)c1ccccc1)C(C)C`, the Ki (commonly the equilibrium dissociation constant of an inhibitor or competing ligand from its target) is 1 nM.

As for `O=C1CCCN1CC#CCN1CCCC1` [1-[4-(2-oxo-pyrrolidin-1-yl)-but-2-ynyl]-pyrrolidinium], the Ki was 500 nM. Then `CN(C)CCC(c1ccc(Br)cc1)c1ccccn1` (stereo not drawn) [2-(p-bromo-alpha-(2-dimethylaminoethyl)benzyl)pyridine], with more than 10000 nM; and `O=C(O)C=CC(=O)Oc1ccc(Cl)cc1` [NSC_6445134], with more than 10000 nM; and `CN(C)CCC(c1ccc(Cl)cc1)c1ccccn1` (stereo not given) [clorfeniramina], with more than 10000 nM.
